This is an account of results in DBAASP.

Converted amounts (≈) assume the structure as drawn. A value given as a limit tells only on which side of the number the result lay.

What all share (test): ≥ marks a high value that may be exact or a test limit, other limits are often not marked, values filed in µg/mL are converted to µM
Assay [1] relates to Candida albicans NCYC 1467.
The test system of assay [2] is Staphylococcus aureus NCTC 10788.
The test system of assay [3] is Escherichia coli NCTC 10418.
Assay [4] deals with Micrococcus luteus ATCC 4698.
The subject of assay [5] is Candida albicans NCPF 1467.
In assay [6] the test system is Escherichia coli DH5alpha.
The subject of assay [7] is Staphylococcus epidermidis ATCC 12228.
The test system of assay [8] is Staphylococcus aureus ATCC 6538.
Assay [9] relates to Pectobacterium carotovorum subsp. carotovorum DSM 30168.
Assay [10] deals with Clavibacter michiganensis subsp. michiganensis DSM 46294.
The subject of assay [11] is Pseudomonas syringae pv. syringae DSM 10604.
For assay [12], the system named is Xanthomonas vesicatoria DSM 50861.
The subject of assay [13] is Pseudomonas corrugata DSM 7228.
For assay [14], the system named is Pseudomonas syringae pv. tomato DC3000.
Assay [15] concerns Klebsiella pneumoniae ATCC 10031.
The subject of assay [16] is Salmonella enterica subsp. enterica serovar Typhimurium ATCC 14028.
The test system of assay [17] is Escherichia coli JW0013.
Assay [18] concerns Escherichia coli.
The subject of assay [19] is Micrococcus luteus A270.
Assay [20] concerns Listeria innocua.

A word on the MIC: it is the lowest concentration found to suppress growth. Read a high MIC as weaker potency. In the case of `CC[C@H](C)[C@H](NC(=O)[C@H](CC(=O)O)NC(=O)[C@H](CCCCN)NC(=O)[C@H](Cc1c[nH]c2ccccc12)NC(=O)[C@H](CC(C)C)NC(=O)[C@H](C)N)C(=O)N[C@@H](CC(C)C)C(=O)N[C@@H](CCCCN)C(=O)N[C@@H](CC(N)=O)C(=O)N[C@@H](C)C(=O)NCC(=O)N[C@@H](CCCCN)C(=O)N[C@@H](C)C(=O)N[C@@H](C)C(=O)N[C@@H](CC(C)C)C(=O)N[C@@H](CC(N)=O)C(=O)N[C@@H](CCC(=O)O)C(=O)N[C@H](C(=O)N[C@@H](CC(N)=O)C(=O)N[C@@H](CCC(N)=O)C(=O)N[C@H](C(=O)N[C@H](C(=O)N[C@@H](CCC(N)=O)C(N)=O)C(C)C)[C@@H](C)CC)[C@@H](C)CC` [ALWKDILKNAGKAALNEINQIVQ], the minimal inhibitory concentration (MIC) in assay [1] is no less than 64 µM; in assay [2] it was no less than 256 µM; in assay [3] it was no less than 32 µM.
Compound `NCCCC[C@@H]1NC(=O)[C@H](Cc2c[nH]c3ccccc23)NC(=O)CNC(=O)CNC(=O)[C@@H](N)CSSC[C@@H](C(=O)O)NC(=O)[C@H](CCCN=C(N)N)NC(=O)[C@H](CCCCN)NC(=O)[C@H](CCCN=C(N)N)NC1=O` [CGGWKRKRC] came in with an MIC in [4] of 0.8 µM (≈ 0.873 µg/mL).
With `CC[C@H](C)[C@H](NC(=O)CNC(=O)[C@@H](NC(=O)[C@H](C)NC(=O)[C@@H](NC(=O)[C@H](Cc1cnc[nH]1)NC(=O)[C@@H]1CCCN1C(=O)[C@@H](NC(=O)[C@H](CCSC)NC(=O)[C@H](CO)NC(=O)[C@H](Cc1ccccc1)NC(=O)[C@@H](N)Cc1ccccc1)[C@@H](C)CC)[C@@H](C)CC)[C@@H](C)O)C(=O)N[C@@H](C)C(=O)N[C@@H](CO)C(=O)N[C@@H](CC(C)C)C(=O)N[C@H](C(=O)N[C@@H](CCCCN)C(=O)N[C@@H](CC(N)=O)C(=O)N[C@@H](CC(C)C)C(N)=O)C(C)C` [FFSMIPHIATGIASLVKNL], the MIC is 31.1 µM (≈ 64 µg/mL) in [5], 15.5 µM (≈ 32 µg/mL) in [2] and no less than 249 µM in assay [3].
The corresponding values for `CC[C@H](C)[C@H](NC(=O)[C@H](C)NC(=O)[C@H](CO)NC(=O)[C@@H](NC(=O)[C@H](CC(C)C)NC(=O)CNC(=O)[C@H](C)NC(=O)[C@@H](NC(=O)[C@@H](NC(=O)[C@H](CO)NC(=O)[C@@H]1CCCN1C(=O)[C@@H](NC(=O)[C@H](CC(C)C)NC(=O)[C@H](CO)NC(=O)[C@H](Cc1ccccc1)NC(=O)[C@H](CC(C)C)NC(=O)[C@@H](N)Cc1ccccc1)[C@@H](C)CC)C(C)C)[C@@H](C)CC)C(C)C)C(=O)N[C@@H](CCCN=C(N)N)C(=O)N[C@@H](CC(N)=O)C(N)=O` [FLFSLIPSVIAGLVSAIRN] are 15.9 µM (≈ 32 µg/mL), 7.93 µM (≈ 16 µg/mL) and no less than 254 µM.
Consider `CC(C)C[C@H](NC(=O)[C@H](CC(C)C)NC(=O)[C@H](CCCCN)NC(=O)[C@H](CO)NC(=O)[C@@H](NC(=O)[C@H](C)NC(=O)[C@H](CCCCN)NC(=O)[C@H](Cc1ccccc1)NC(=O)[C@H](CC(C)C)NC(=O)[C@H](C)NC(=O)CNC(=O)[C@H](CC(C)C)NC(=O)[C@@H](N)Cc1ccccc1)C(C)C)C(=O)O` [FLGALFKAVSKLL], for which the MIC in [6] was 25.6 µM (≈ 36 µg/mL); in [4] it was 4.98 µM (≈ 7 µg/mL); in [7] it was 15.6 µM (≈ 22 µg/mL); in assay [8], 8.53 µM (≈ 12 µg/mL).
With `CC[C@H](C)[C@H](NC(=O)CNC(=O)CNC(=O)[C@H](C)NC(=O)[C@@H](NC(=O)[C@H](Cc1cnc[nH]1)NC(=O)[C@@H]1CCCN1C(=O)[C@@H](NC(=O)[C@H](CCSC)NC(=O)[C@H](CO)NC(=O)[C@H](CC(C)C)NC(=O)[C@@H](N)Cc1ccccc1)[C@@H](C)CC)[C@@H](C)CC)C(=O)N[C@@H](C)C(=O)N[C@@H](CO)C(=O)N[C@@H](CC(C)C)C(=O)N[C@H](C(=O)N[C@@H](CCCCN)C(=O)N[C@@H](CC(N)=O)C(=O)N[C@@H](CC(C)C)C(N)=O)C(C)C` [FLSMIPHIAGGIASLVKNL], the MIC in [5] was no less than 32.3 µM; in [2], 16.2 µM (≈ 32 µg/mL); in assay [3], no less than 258 µM.
With `CC[C@H](C)[C@H](NC(=O)CNC(=O)[C@H](CO)NC(=O)[C@H](CC(C)C)NC(=O)[C@H](CC(C)C)NC(=O)CN)C(=O)N[C@@H](CC(C)C)C(=O)NCC(=O)N[C@@H](C)C(=O)NCC(=O)N[C@@H](CCCCN)C(=O)N[C@@H](CCCCN)C(=O)N[C@H](C(=O)N[C@H](C(=O)O)C(C)C)[C@@H](C)CC` [GLLSGILGAGKKIV], the MIC in [1] was no less than 32 µM; in [2], no less than 32 µM; in assay [3] it was no less than 64 µM.
Consider `CSCC[C@H](NC(=O)CN)C(=O)N[C@@H](CCCN=C(N)N)C(=O)N1CCC[C@H]1C(=O)N1CCC[C@H]1C(=O)N[C@@H](Cc1c[nH]c2ccccc12)C(=O)N[C@@H](Cc1ccccc1)C(N)=O` [GMRPPWF], for which the MIC in assay [5] was no less than 144 µM; in assay [2], no less than 288 µM; in assay [3] it was no less than 575 µM.
Turning to `CC(C)C[C@H](NC(=O)[C@H](C)NC(=O)[C@H](CC(C)C)NC(=O)[C@H](CCCN=C(N)N)NC(=O)[C@H](CCCN=C(N)N)NC(=O)[C@@H](N)CCCCN)C(=O)N[C@@H](Cc1ccccc1)C(=O)N[C@@H](CCCN=C(N)N)C(=O)N[C@@H](CC(C)C)C(=O)N[C@@H](Cc1ccccc1)C(=O)N[C@@H](CCCN=C(N)N)C(=O)N[C@@H](CC(C)C)C(=O)N[C@@H](C)C(=O)N[C@@H](CC(C)C)C(=O)N[C@@H](CCCCN)C(=O)N[C@@H](CC(C)C)C(=O)N[C@H](C(=O)N[C@@H](CC(C)C)C(=O)N[C@@H](CCCCN)C(=O)N[C@@H](CCCCN)C(N)=O)C(C)C` [KRRLALFRLFRLALKLVLKK], the MIC in [9] was 4.03 µM (≈ 10 µg/mL); in assay [10] it was 1.01 µM (≈ 2.5 µg/mL); in [11], 4.03 µM (≈ 10 µg/mL); in assay [12], 1.01 µM (≈ 2.5 µg/mL); in assay [13], 4.03 µM (≈ 10 µg/mL); in assay [14], 1.01 µM (≈ 2.5 µg/mL).
`CC[C@H](C)[C@@H]1NC(=O)[C@H](CCCCN)NC(=O)[C@@H](NC(=O)[C@@H](NC(=O)[C@@H](NC(=O)[C@@H](NC(=O)[C@@H]2CCCN2C(=O)[C@H](CC(C)C)NC(=O)[C@H](Cc2ccccc2)NC(=O)[C@H](CC(N)=O)NC(=O)[C@H](C)NC(=O)[C@H](C)NC(=O)[C@H](CC(C)C)NC(=O)CNC(=O)[C@H](C)NC(=O)[C@H](CC(C)C)NC(=O)[C@@H](N)CC(C)C)[C@@H](C)O)[C@@H](C)CC)[C@@H](C)CC)CSSC[C@@H](C(=O)O)NC(=O)[C@H](CCCCN)NC(=O)[C@H](Cc2ccc(O)cc2)NC(=O)[C@H](CO)NC1=O` [LLAGLAANFLPTIICKISYKC]: the MIC in assay [6] is no less than 44.4 µM; in [15], no less than 44.4 µM; in assay [16], greater than 44.4 µM.
`CC[C@H](C)[C@H](NC(=O)[C@H](CCCN=C(N)N)NC(=O)[C@H](CCCN=C(N)N)NC(=O)[C@@H]1CCCN1C(=O)[C@@H]1CCCN1C(=O)[C@H](CCCN=C(N)N)NC(=O)[C@@H]1CCCN1C(=O)[C@H](CCCN=C(N)N)NC(=O)[C@@H]1CCCN1C(=O)[C@H](CC(C)C)NC(=O)[C@H](Cc1ccc(O)cc1)NC(=O)[C@H](CC(=O)O)NC(=O)[C@@H]1CCCN1C(=O)[C@H](CCCCN)NC(=O)[C@H](CC(=O)O)NC(=O)[C@@H](N)C(C)C)C(=O)N[C@@H](Cc1ccc(O)cc1)C(=O)N[C@@H](CC(N)=O)C(=O)N[C@@H](CCCN=C(N)N)C(N)=O` [VDKPDYLPRPRPPRRIYNR] gave a minimum inhibitory concentration (MIC) in assay [17] of 1.37 µM (≈ 3.3 µg/mL).
Still for that read-out and setting: as for `CC[C@H](C)[C@H](NC(=O)[C@H](CCCN=C(N)N)NC(=O)[C@H](CCCN=C(N)N)NC(=O)[C@@H]1CCCN1C(=O)[C@@H]1CCCN1C(=O)[C@H](CCCN=C(N)N)NC(=O)[C@@H]1CCCN1C(=O)[C@H](CCCN=C(N)N)NC(=O)[C@@H]1CCCN1C(=O)[C@H](CC(C)C)NC(=O)[C@H](Cc1ccc(O)cc1)NC(=O)[C@H](CCCCN)NC(=O)[C@@H]1CCCN1C(=O)[C@H](CCCCN)NC(=O)[C@H](CC(=O)O)NC(=O)[C@@H](N)C(C)C)C(=O)N[C@@H](Cc1ccc(O)cc1)C(=O)N[C@@H](CC(N)=O)C(=O)N[C@@H](CCCN=C(N)N)C(N)=O` [VDKPKYLPRPRPPRRIYNR], the figure is 1.36 µM (≈ 3.3 µg/mL).
Take `CC(C)C[C@H](NC(=O)[C@H](CC(C)C)NC(=O)[C@H](CO)NC(=O)[C@H](Cc1cnc[nH]1)NC(=O)[C@H](CO)NC(=O)[C@H](CC(C)C)NC(=O)[C@H](CC(C)C)NC(=O)[C@H](CCCCN)NC(=O)[C@H](Cc1ccccc1)NC(=O)[C@H](CC(N)=O)NC(=O)[C@@H](N)C(C)C)C(=O)O` [VNFKLLSHSLL]: the minimum inhibitory concentration (MIC) was found to be 98 µM (≈ 125 µg/mL) in assay [18], 24 µM (≈ 30.5 µg/mL) in [19] and 24 µM (≈ 30.5 µg/mL) in [20].
